In patent US20160311886A1, “Constructs Binding to Phosphatidylserine and Their Use in Disease Treatment and Imaging” (Board of Regents, The University of Texas System, priority 2005, published 2016):

Experiments:
[1] = tested on: drug-resistant breast tumors; test: 3G4 and cisplatin against drug-resistant breast tumors; type: in vivo, mouse; conditions: treated after day 20
Excerpt: Mice were inoculated with drug-resistant breast tumors and treated after day 20.

[2] = tested on: ABAE cells; test: Induction of PS exposure, 125I-annexin V binding; type: cell-based, bovine
Protocol: (§1) All reagents were diluted in medium containing 10% serum and incubated with the cells at 37° C. for 24 h.
(§2) To study the effect of hypoxia, cells were seeded on 24 well plates and were incubated in a humidified normoxic atmosphere (21% O2, 5% CO2) for 48 h before being transferred to a humidified hypoxic atmosphere (1% O2, 5% CO2, 94% N2) in a sealed chamber (Billups Rothenberg Inc., Del Mar, Ca). Cells were incubated in a hypoxic chamber for 24 h at 37° C. and were then returned to a normoxic environment for 4 h at 37° C. The cells were compared to a parallel culture from an identical passage, seeded on the same day and maintained entirely under normoxic conditions. In some studies, IL-1α (10 ng/ml) and TNFα (20 ng/ml) were added to the medium before transfer to the hypoxic chamber.
(§3) After treatment with the reagents described above, treated and control cells were incubated with 7.1 pmoles of ^125I-labeled annexin V (200 μl/well) in the binding buffer. After 2 h incubation at room temperature, cells were washed extensively and dissolved in 0.5 M of NaOH. The entire volume of 0.5 ml was transferred to plastic tubes and counted in a gamma counter. Non-specific binding was determined in the presence of 5 mM EDTA and was subtracted from experimental values. The results were expressed as net pmoles of cell-bound annexin V, normalized per 1×10^6 cells.
(§4) Maximal binding of annexin V was determined on cells simultaneously treated with actinomycin D and TNFα (50 ng/ml of each component). As has been previously reported, these agents cause apoptosis and PS exposure in 90-100% of endothelial cells (Lucas et al., 1998). Basal binding of ^125I-annexin V to untreated cells was determined in the presence of medium with 10% serum. The amount of ^125I-annexin V that bound to the untreated cultures was subtracted from that in the treated cultures. Exposure of PS was calculated according to the following formula: cell-bound annexin V (pmoles) under experimental conditions divided by maximal annexin V binding (pmoles), multiplied by 100. Each study was performed in duplicate and was performed at least three times. Mean values were calculated. The SE of the mean values from three separate experiments was less than 5%.

[3] = tested on: bEnd.3 cells; test: Induction of PS exposure, 125I-annexin V binding; type: cell-based, mouse
Protocol: as §1, §2, §3, §4

[4] = Serum dependence of binding to PS
Protocol: The serum dependence or independence of the antibodies is also set forth in Table 2 (see also, Example XXX).
The 1B9, 2G7 and 7C5 antibodies behave essentially the same. These antibodies recognize only PS and require serum or serum proteins for binding to PS. The binding of 1B9, 2G7 and 7C5 to various phospholipids in the present example was assayed only in the presence of 10% bovine serum, whereas binding of the other antibodies was tested either in the absence or in the presence of serum.

[5] = Phospholipid specificity ELISA; type: binding
Protocol: The specificity of the antibodies was determined by ELISA using plates coated with the following phospholipids: PS, phosphatidylserine; PE, phosphatidylethanolamine; PI, phosphatidylinositol; PA, phosphatidic acid; PG, phosphatidylglycerol; PC, phosphatidylcholine; CL, cardiolipin; and SM, sphingomyelin.

[6] = Binding of ch3G4 and 2aG4 to phospholipid-coated ELISA plates; conditions: vs 3G4
[7] = tested on: WiDr (colon carcinoma); test: WiDr colon carcinoma model; type: in vivo, mouse; conditions: 100 μg 3×/week from day 5; preliminary study
Protocol: Treatment was started on day 5, when the tumors were small (10 mice per group). 100 μg of each antibody was injected 3×/week and tumor growth monitored.

[8] = tested on: ABAE cells with exposed PS; test: Live-cell binding assay on LPC-treated endothelial cells; type: cell-based, bovine
Protocol: Adult bovine aortic endothelial (ABAE) cells were maintained in DMEM supplemented with 10% FBS and 2 mM L-glutamine. ABAE cells were removed from subconfluent cultures by brief exposure to 0.25% trypsin/0.02% EDTA, and 8-well chamber slides were seeded with 2×10^4 cells/well. Following overnight culture, cells were washed gently with PBS and treated with 200 μM lysophosphatidylcholine (LPC) to induce PS exposure.
PS exposure was determined by immunofluorescence staining. Cells were washed thoroughly in PBS, fixed in 4% paraformaldehyde (w/v), and incubated with a biotin-conjugated anti-mouse secondary antibody. Next, cells were incubated with FITC-conjugated streptavidin (Jackson Immunoresearch) to detect antibody binding. Cells were then permeablized with 0.1% Triton-X100 in PBS and counterstained with Texas Red-conjugated phalloidin (Molecular Probes, Eugene, Oreg.), and 4′, 6-diamidino-2-phenylindole (DAPI; Molecular Probes). Images were captured using a Coolsnap digital camera (Photometrics, Tucson, Ariz.) mounted on a Nikon microscope and processed with MetaVue software (Universal Imaging Corporation, Downingtown, Pa.).
The area of antibody binding was determined using MetaVue image analysis software, which is able to quantify the number of illuminated pixels in an image. Images of FITC fluorescence were used to quantify antibody binding. Corresponding images of DAPI fluorescence were used to normalize the FITC images for the number of cells present in the field. A small FITC/DAPI ratio indicates a small antibody binding area, whereas a large FITC/DAPI ratio indicates a large binding area. The FITC/DAPI ratios were used to determine increases or decreases in antibody binding area relative to a basal amount of antibody binding under the selected conditions. Five images at 200× magnification were used for each analysis. Data are presented as average relative FITC/DAPI ratios with error bars representing the standard deviation.
Cells were then washed, fixed, and stained with fluorescent markers to visualize binding of antibody to the cell surface.

[9] = Hypoxia (1% O2) + TNFα 20 ng/ml
[10] = Hypoxia (1% O2) + IL-1α 10 ng/ml

N.N.[Cl][Pt][Cl] [cisplatin, reference compound]
anti-tumor response [1]: tumor growth was slowed

TGF β1: growth factor tested on endothelial cells
125I-Annexin V (% of Max binding) ([2]; 20 ng/ml, 24 h): 0 % of Max binding
125I-Annexin V (% of Max binding) ([3]; 20 ng/ml, 24 h): 0 % of Max binding

TNFα
125I-Annexin V (% of Max binding) ([2]; 20 ng/ml, 24 h): 7.4 % of Max binding
125I-Annexin V (% of Max binding) [2, 9]: 33.0 % of Max binding
125I-Annexin V (% of Max binding) ([3]; 20 ng/ml, 24 h): 13.7 % of Max binding
125I-Annexin V (% of Max binding) [3, 9]: 36.0 % of Max binding

IL-10: interleukin-10
125I-Annexin V (% of Max binding) ([2]; 20 ng/ml, 24 h): 0 % of Max binding
125I-Annexin V (% of Max binding) ([3]; 20 ng/ml, 24 h): 0 % of Max binding

IL-8: interleukin-8
125I-Annexin V (% of Max binding) ([2]; 20 ng/ml, 24 h): 0 % of Max binding
125I-Annexin V (% of Max binding) ([3]; 20 ng/ml, 24 h): 0 % of Max binding

GM-CSF: cytokine tested on endothelial cells
binding of 125I-annexin V above the basal level for untreated cells ([2]; ABAE and bEnd.3 cells): did not increase binding

Scatter factor: Recombinant hepatocyte growth factor (HGF or scatter factor)
125I-Annexin V (% of Max binding) ([2]; 40 ng/ml, 24 h): 0 % of Max binding
125I-Annexin V (% of Max binding) ([3]; 40 ng/ml, 24 h): 0 % of Max binding

FGF-2: human fibroblast growth factor-2
125I-Annexin V (% of Max binding) ([2]; 20 ng/ml, 24 h): 0 % of Max binding
125I-Annexin V (% of Max binding) ([3]; 20 ng/ml, 24 h): 0 % of Max binding

IL-6: interleukin-6
125I-Annexin V (% of Max binding) ([2]; 20 ng/ml, 24 h): 0 % of Max binding
125I-Annexin V (% of Max binding) ([3]; 20 ng/ml, 24 h): 0 % of Max binding

VEGF
125I-Annexin V (% of Max binding) ([2]; 20 ng/ml, 24 h): 0 % of Max binding
125I-Annexin V (% of Max binding) ([3]; 20 ng/ml, 24 h): 0 % of Max binding

Thrombin
125I-Annexin V (% of Max binding) ([2]; 50 nM, 24 h): 8.8 % of Max binding
125I-Annexin V (% of Max binding) ([3]; 50 nM, 24 h): 17.4 % of Max binding

B1: 2aG4: Recombinant mouse IgG2a isotype of 3G4; SEQ ID NO:10 and 11 (antibody, listed as Mus musculus)
heavy: MGWTWIFILILSVTTGVHSEVQLQQSGPELEKPGASVKLSCKASGYSFTGYNMNWVKQSHGKSLEWIGHIDPYYGDTSYNQKFRGKATLTVDKSSSTAYMQLKSLTSEDSAVYYCVKGGYYGHWYFDVWGAGTTVTVSSAKTTAPSVYPLAPVCGDTTGSSVTLGCLVKGYFPEPVTLTWNSGSLSSGVHTFPAVLQSDLYTLSSSVTVTSSTWPSQSITCNVAHPASSTKVDKKEPRGPTIKPCPPCKCPAPNLLGGPSVFIFPPKIKDVLMISLSPIVTCVVVDVSEDDPDVQISWFVNNVEVHTAQTQTHREDYNSTLRVVSALPIQHQDWMSGKEFKCKVNNKDLPAPIERTISKPKGSVRAPQVYVLPPPEEEMTKKQVTLTCMVTDFMPEDIYVEWTNNGKTELNYKNTEPVLDSDGSYFMYSKLRVEKKNWVERNSYSCSVVHEGLHNHHTTKSFSRTPGK
light: MDMRAPAQILGFLLLLFPGTRCDIQMTQSPSSLSASLGERVSLTCRASQDIGSSLNWLQQGPDGTIKRLIYATSSLDSGVPKRFSGSRSGSDYSLTISSLESEDFVDYYCLQYVSSPPTFGAGTKLELKRADAAPTVSIFPPSSEQLTSGGASVVCFLNNFYPKDINVKWKIDGSERQNGVLNSWTDQDSKDSTYSMSSTLTLTKDEYERHNSYTCEATHKTSTSPIVKSFNRNEC
Serum cofactor? [4]: Yes
Relative Strength of Reactivity on ELISA [5]: PS = PA = PI = PG = CL >> PE
affinity and specificity in PS-ELISA [6]: essentially the same as for 3G4
tumor growth [7]: slowed tumor growth to essentially the same degree

B2: nicked hβ2GPI: hβ2GPI cleaved by plasmin at Lys317/Thr318; non-lipid binding form (protein)
chain: GRTCPKPDDLPFSTVVPLKTFYEPGEEITYSCKPGYVSRGGMRKFICPLTGLWPINTLKCTPRVCPFAGILENGAVRYTTFEYPNTISFSCNTGFYLNGADSAKCTEEGKWSPELPVCAPIICPPPSIPTFATLRVYKPSAGNNSLYRDTAVFECLPQHAMFGNDTITCTTHGNWTKLPECREVKCPFPSRPDNGFVNYPAKPTLYYKDKATFGCHDGYSLDGPEEIECTKLGNWSAMPSCKASCKLPVKKATVVYQGERVKIQEKFKNGMLHGDKVSFFCKNKEKKCSYTEDAQCIDGTIEVPKCFKEHSSLAFWKTDASDVKPC
mediation of ch3G4 binding to ABAE cells with exposed PS ([8]; 2 μg/ml, LPC): not able to mediate binding

B3: IL-1α: Recombinant murine interleukin-1 alpha (protein, UniProt P01582 115-270, looked up)
Interleukin-1 alpha: SAPYTYQSDLRYKLMKLVRQKFVMNDSLNQTIYQDVDKHYLSTTWLNDLQQEVKFDMYAYSSGGDDSKYPVTLKISDSQLFVSAQGEDQPVLLKELPETPKLITGSETDLIFFWKSINSKNYFTSAAYPELFIATKEQSRVHLARGLPSMTDFQIS
125I-Annexin V (% of Max binding) ([2]; 10 ng/ml, 24 h): 6.4 % of Max binding
125I-Annexin V (% of Max binding) [2, 10]: 26.0 % of Max binding
125I-Annexin V (% of Max binding) ([3]; 10 ng/ml, 24 h): 7.5 % of Max binding
125I-Annexin V (% of Max binding) [3, 10]: 31.0 % of Max binding

B4: 3G4 Fab′: Monovalent fragment of 3G4 (antibody)
VH: EVQLQQSGPELEKPGASVKLSCKASGYSFTGYNMNWVKQSHGKSLEWIGHIDPYYGDTSYNQKFRGKATLTVDKSSSTAYMQLKSLTSEDSAVYYCVKGGYYGHWYFDVWGAGTTVTVSSATTTAPSVYPLVP
light: DIQMTQSPSSLSASLGERVSLTCRASQDIGSSLNWLQQGPDGTIKRLIYATSSLDSGVPKRFSGSRSGSDYSLTISSLESEDFVDYYCLQYVSSPPTFGAGTKLELKRADAAPTVSIFPPSSEQLTSGGASVVCFLNNFYPKDINVKWKIDGSERQNGVLNSWTDQDSKDSTYSMSSTLTLTKDEYERHNSYTCEATHKTSTSPIVKSFNRNEC
inhibition of ch3G4/β2GPI binding ([8]; 20 nM ch3G4, 40 nM hβ2GPI): inhibited ch3G4/β2GPI binding to LPC-treated ABAE cells in a concentration-dependent manner
binding to LPC-treated ABAE cells ([8]; 20 nM, DMEM+10% FBS): negligible
binding to ABAE cells ([8]; 2 μM, 40 nM hβ2GPI): No binding

B5: IL-1β: Recombinant murine interleukin-1 beta (protein, UniProt P10749 118-269, looked up)
Interleukin-1 beta: VPIRQLHYRLRDEQQKSLVLSDPYELKALHLNGQNINQQVIFSMSFVQGEPSNDKIPVALGLKGKNLYLSCVMKDGTPTLQLESVDPKQYPKKKMEKRFVFNKIEVKSKVEFESAEFPNWYISTSQAEHKPVFLGNNSGQDIIDFTMESVSS
125I-Annexin V (% of Max binding) ([2]; 10 ng/ml, 24 h): 5.8 % of Max binding
125I-Annexin V (% of Max binding) ([3]; 10 ng/ml, 24 h): 5.5 % of Max binding
